{
  "source": "patent US20140249198A1",
  "about": "“MELATONIN AND ITS USE IN PREVENTING POSTOPERATIVE COMPLICATIONS” (NUTRI-FIT GMBH & CO., KG, priority 2004, published 2014)",
  "key": {"[1]": {"system": "female Sprague Dawley rats", "experiment": "Partial liver resection with ischemia/reperfusion in rats, preoperative melatonin by gavage", "assay_type": "in vivo, rat", "procedure": "Ischemia and subsequent reperfusion of organs and tissues induced by clamping of blood vessels to prevent excessive bleeding, are unavoidable during surgical procedures. Such a standard ischemia/reperfusion situation can be simulated by a partial hepatectomy in a clinically relevant rat surgical model.\nIn this animal model, female Sprague Dawley rats (200-220 g) undergo a median laparotomy followed by clamping of the right lateral liver lobe for 20 min resulting in a hypoxia in about 30% of the entire organ. After reperfusion of the ischemic tissue, the remaining 70% of the liver, the non-ischemic middle and left lateral liver lobes are surgically removed and the surgical incision is closed. During a follow up period of maximal 7 days the effects of ischemia/reperfusion are observed with respect to liver damage and survival.\nIn this rat model the operative trauma of performing a laparotomy introduces a first hypoxia in the liver. The subsequent partial clamping of the blood supply to the liver and the following partial resection of a large part of liver tissue results in additional ischemia. During the subsequent reperfusion the actual free radical-induced damage to the liver tissue occurs. This actual damage to many cells of the liver tissue in regions of the remaining parts of the organ is now determined by the release of enzymes such as liver transaminases, alkaline phosphatase after various time points following partial liver resection.\nAfter reperfusion of the ischemic tissue, the remaining 70% of the liver, the non-ischemic middle and the left lateral liver lobes were surgically removed and the surgical incision was closed.\nIn this rat model the operative trauma of performing a laparotomy introduced a first hypoxia in the liver. […] During the subsequent reperfusion the actual free radical-induced damage to the liver tissue occurred. This actual damage to many cells of the liver tissue in regions of the remaining parts of the organ was now determined by the release of enzymes such as liver transaminases (AST, ALT) and alkaline phosphatase after various time points following partial liver resection.\nMelatonin was administered in various concentrations (0, 10, 20, 50 mg/kg body weight) by gavage of a control (5% ethanol in water; 0 mg/kg body weight melatonin) or a melatonin-containing aqueous solution (5% ethanol) into the stomach of the 10 rats of each of the four groups 2 hours before the surgery."}, "[2]": {"system": "mice", "conditions": "short term administration after surgery-induced hemorrhagic shock, mice subjected to septic challenge; cited from earlier work"}, "[3]": {"system": "neutrophils", "conditions": "in vitro; apoptosis delayed following hepatectomy; cited from earlier work"}, "[4]": {"system": "neonates", "conditions": "treatment started within 3 hours after the end of surgery; cited from earlier work"}, "[5]": {"system": "rat middle cerebral artery occlusion model", "conditions": "pretreatment with melatonin; cited from earlier work"}, "[6]": {"conditions": "10, 20, 50 mg/kg body weight by gavage 2 hours before surgery, 3 and 8 h after partial liver resection, vs control, FIG. 1"}},
  "data": [
    {"smiles": "COc1ccc2[nH]cc(CCNC(C)=O)c2c1", "note": "[Melatonin, N-acetyl-5-methoxytryptamin]", "values": [
      {"measurement": "survival after 7 days", "setting": "[1]; 10 mg/kg body weight preoperatively, vs control, FIG. 3", "value": "significant increase in survival"},
      {"measurement": "alkaline phosphatase (ALP) activity (indicates regeneration of the liver)", "setting": "[1]; 50 mg/kg body weight preoperatively, 3, 8, 48 h and 1 week after partial liver resection, vs control, FIG. 2", "value": "increased ALP activity after 48 h reaching statistical significance after 1 week"},
      {"measurement": "level of alanine transferase (ALT)", "setting": "[1]; [6]", "value": "amelioration of the massive increase"},
      {"measurement": "level of aspartate transferase (AST)", "setting": "[1]; [6]", "value": "amelioration of the massive increase"},
      {"measurement": "hypoxia of liver tissue", "setting": "[1]; preoperative application, partial liver resection in rats", "value": "reduces the increase in hypoxia of liver tissue"},
      {"measurement": "extent of necrosis following ischemia/reperfusion of the liver", "setting": "[1]; preoperative application, rats", "value": "reduces the extent of necrosis"},
      {"measurement": "survival", "setting": "[2]", "value": "significantly improved survival"},
      {"measurement": "apoptosis activity in neutrophils", "setting": "[3]", "value": "enhances apoptosis activity in neutrophils"},
      {"measurement": "clinical parameters of inflammation", "setting": "[4]", "value": "progressive reduction of clinical parameters of inflammation"},
      {"measurement": "volume of cerebral infarction", "setting": "[5]", "value": "reduce the volume of cerebral infarction"}
    ]}
  ]
}
